For orientation: IC50 means the concentration that gives 50% inhibition. A higher IC50 goes with weaker potency in that assay.

The test concerns the target T1, full-length MALT1 protein His-MALT1(1-824) (Homo sapiens, UniProt Q9UDY8).
T1 construct: full-length MALT1 protein His-MALT1(1-824); His (N); made in house; host or cells: baculovirus-infected insect cells
T1 sequence (Q9UDY8 1-824): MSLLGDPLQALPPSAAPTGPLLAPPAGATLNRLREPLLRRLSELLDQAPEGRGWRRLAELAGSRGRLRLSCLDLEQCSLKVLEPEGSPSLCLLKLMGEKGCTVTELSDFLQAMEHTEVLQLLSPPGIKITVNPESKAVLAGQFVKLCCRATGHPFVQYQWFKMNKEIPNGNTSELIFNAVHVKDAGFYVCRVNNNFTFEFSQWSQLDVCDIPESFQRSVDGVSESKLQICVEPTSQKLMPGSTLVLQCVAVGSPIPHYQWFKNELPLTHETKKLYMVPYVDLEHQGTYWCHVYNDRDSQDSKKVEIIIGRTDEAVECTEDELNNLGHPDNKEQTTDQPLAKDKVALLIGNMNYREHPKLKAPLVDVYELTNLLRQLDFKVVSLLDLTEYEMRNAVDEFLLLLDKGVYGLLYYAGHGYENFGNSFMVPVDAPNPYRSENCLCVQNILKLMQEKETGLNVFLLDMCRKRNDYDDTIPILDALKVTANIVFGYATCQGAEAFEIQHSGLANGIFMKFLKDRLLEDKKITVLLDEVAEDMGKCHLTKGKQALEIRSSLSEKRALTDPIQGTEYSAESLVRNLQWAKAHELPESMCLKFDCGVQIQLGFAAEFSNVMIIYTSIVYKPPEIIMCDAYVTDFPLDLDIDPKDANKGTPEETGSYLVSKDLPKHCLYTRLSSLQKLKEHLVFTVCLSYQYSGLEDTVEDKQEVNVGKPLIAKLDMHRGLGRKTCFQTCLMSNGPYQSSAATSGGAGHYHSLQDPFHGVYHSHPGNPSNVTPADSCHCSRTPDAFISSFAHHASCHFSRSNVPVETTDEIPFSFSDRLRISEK
Put plainly: MALT1 protease assay, Assay 1 (2 nM MALT1, Ac-LRSR-AMC substrate). In kind it is biochemical. Particulars: 2 nM MALT1, 50 μM Ac-LRSR-AMC, 2 h pre-incubation, 8 hr incubation at RT. The procedure: MALT1 protease activity was assessed in an in vitro assay using a tetrapeptide as substrate and full-length MALT1 protein His-MALT1(1-824) purified from baculovirus-infected insect cells. The tetrapeptide substrate is Ac-LRSR-AMC (SM Biochemicals) with Km measured at around 100 μM.
The final assay buffer includes 1 nM (Assay 2) or 2 nM (Assay 1) of MALT1 full-length protein, 50 μM Ac-LRSR-AMC substrate, 50 mM Tris pH 7.5, 600 mM Sodium Citrate, 1 mM DTT, 1 mM EDTA, and 0.05% BSA in 384-well plate format using black microtiter square well plates (Optiplate 384-F, Perkin Elmer).
Test compounds were dissolved in 100% DMSO at stock of 10 mM, with final DMSO concentration 0.1%. Test compounds were pre-incubated with MALT1 protein for 2 h at room temperature. Substrate was added after the pre-incubation and fluorescence signal was measured using Envision at excitation 355 nm and emission 460 nm after 8 hr incubation at RT. Increase in the assay signal was linear over this period and proportional with increase in the enzyme content.
The fluorescence units were transformed to percentage of remaining activity by using the high control (HC, median of fluorescence signal from wells containing MALT1 protein, substrate, and DMSO) and low control (LC, median of fluorescence signal from wells with substrate only) with the formula below: […]
IC50 and Hill coefficients were obtained using Graph Pad Prism (Graph Pad software, Inc, USA) with non-linear regression analysis.
As for `CC1(C)CC(C(=O)Nc2cnc(-n3nccn3)c(Cl)c2)c2cnc3cc(C(F)(F)F)nn3c21` (stereo not drawn) [Example 40, N-(5-chloro-6-(2H-1,2,3-triazol-2-yl)pyridin-3-yl)-8,8-dimethyl-2-(trifluoromethyl)-7,8-dihydro-6H-cyclopenta[e]pyrazolo[1,5-a]pyrimidine-6-carboxamide], the IC50 was in the range of 10 to 100 nM. As for `Cn1cnc(-c2ncc(NC(=O)[C@@H]3CC(C)(C)c4c3cnc3cc(Cl)nn43)cc2Cl)c1` (single isomer, unassigned) [Example 34, 2-chloro-N-(5-chloro-6-(1-methyl-1H-imidazol-4-yl)pyridin-3-yl)-8,8-dimethyl-7,8-dihydro-6H-cyclopenta[e]pyrazolo[1,5-a]pyrimidine-6-carboxamide], the figure is not below 1000 nM; as for `CC(C)(O)c1cnn(-c2ncc(NC(=O)C3CC(C)(C)c4c3cnc3cc(Cl)nn43)cc2Cl)n1` (single isomer, unassigned) [Example 22, 2-chloro-N-(5-chloro-6-(4-(2-hydroxypropan-2-yl)-2H-1,2,3-triazol-2-yl)pyridin-3-yl)-8,8-dimethyl-7,8-dihydro-6H-cyclopenta[e]pyrazolo[1,5-a]pyrimidine-6-carboxamide], 100 to 1000 nM; as for `CC1(C)C[C@@H](C(=O)Nc2cnc(N3CCCC3)c(Cl)c2)c2cnc3cc(Cl)nn3c21` (single isomer, unassigned) [Example 16, 2-chloro-N-(5-chloro-6-(pyrrolidin-1-yl)pyridin-3-yl)-8,8-dimethyl-7,8-dihydro-6H-cyclopenta[e]pyrazolo[1,5-a]pyrimidine-6-carboxamide], not below 1000 nM. The figure for `CCc1cc2ncc3c(n2n1)C(C)(C)C[C@H]3C(=O)Nc1cnc(-n2nccn2)c(Cl)c1` (single isomer, unassigned) [Example 20, N-(5-chloro-6-(2H-1,2,3-triazol-2-yl)pyridin-3-yl)-2-ethyl-8,8-dimethyl-7,8-dihydro-6H-cyclopenta[e]pyrazolo[1,5-a]pyrimidine-6-carboxamide] is not below 1000 nM; for `Cc1cc2ncc3c(n2n1)C(C)(C)C[C@H]3C(=O)Nc1cnc(-n2nccn2)c(Cl)c1` (single isomer, unassigned) [Example 5, N-(5-chloro-6-(2H-1,2,3-triazol-2-yl)pyridin-3-yl)-2,8,8-trimethyl-7,8-dihydro-6H-cyclopenta[e]pyrazolo[1,5-a]pyrimidine-6-carboxamide] it is not below 1000 nM.

`C[C@@]1(C(F)(F)F)C[C@@H](C(=O)Nc2cnc(-n3nccn3)c(Cl)c2)c2cnc3cc(Cl)nn3c21` (single isomer, unassigned) [Example 39, 2-chloro-N-(5-chloro-6-(2H-1,2,3-triazol-2-yl)pyridin-3-yl)-8-methyl-8-(trifluoromethyl)-7,8-dihydro-6H-cyclopenta[e]pyrazolo[1,5-a]pyrimidine-6-carboxamide] came in with an IC50 of 10 to 100 nM.

Consider `CC1(C)C[C@@H](C(=O)Nc2cnc(-n3cccn3)c(Cl)c2)c2cnc3cc(Cl)nn3c21` (single isomer, unassigned) [Example 12, 2-chloro-N-(5-chloro-6-(1H-pyrazol-1-yl)pyridin-3-yl)-8,8-dimethyl-7,8-dihydro-6H-cyclopenta[e]pyrazolo[1,5-a]pyrimidine-6-carboxamide], for which the IC50 was not below 1000 nM.

Compound `CC1(C)C[C@@H](C(=O)Nc2cnc([C@@H]3CCCO3)c(Cl)c2)c2cnc3cc(Cl)nn3c21` (single isomer, unassigned) [Example 26, 2-chloro-N-(5-chloro-6-(tetrahydrofuran-2-yl)pyridin-3-yl)-8,8-dimethyl-7,8-dihydro-6H-cyclopenta[e]pyrazolo[1,5-a]pyrimidine-6-carboxamide] came in with an IC50 not below 1000 nM. On to `CC1(C)C[C@@H](C(=O)Nc2cnc(-n3cc(C#N)cn3)c(Cl)c2)c2cnc3cc(Cl)nn3c21` (single isomer, unassigned) [Example 14, 2-chloro-N-(5-chloro-6-(4-cyano-1H-pyrazol-1-yl)pyridin-3-yl)-8,8-dimethyl-7,8-dihydro-6H-cyclopenta[e]pyrazolo[1,5-a]pyrimidine-6-carboxamide], for which the IC50 was not below 1000 nM. Compound `CC1(C)C[C@@H](C(=O)Nc2cnc(-n3nccn3)c(Cl)c2)c2cnc3cc(C#N)nn3c21` (single isomer, unassigned) [Example 3, N-(5-chloro-6-(2H-1,2,3-triazol-2-yl)pyridin-3-yl)-2-cyano-8,8-dimethyl-7,8-dihydro-6H-cyclopenta[e]pyrazolo[1,5-a]pyrimidine-6-carboxamide] yielded an IC50 not below 1000 nM. The figure for `CC1(C)C[C@@H](C(=O)Nc2cnc([C@H]3CCCO3)c(Cl)c2)c2cnc3cc(Cl)nn3c21` (single isomer, unassigned) [Example 27, 2-chloro-N-(5-chloro-6-(tetrahydrofuran-2-yl)pyridin-3-yl)-8,8-dimethyl-7,8-dihydro-6H-cyclopenta[e]pyrazolo[1,5-a]pyrimidine-6-carboxamide] is not below 1000 nM; for `CC1(C)C[C@@H](C(=O)Nc2cnc(-n3nccn3)c(Cl)c2)c2cnc3cc(F)nn3c21` (single isomer, unassigned) [Example 32, N-(5-chloro-6-(2H-1,2,3-triazol-2-yl)pyridin-3-yl)-2-fluoro-8,8-dimethyl-7,8-dihydro-6H-cyclopenta[e]pyrazolo[1,5-a]pyrimidine-6-carboxamide] it is not below 1000 nM; for `CC1(C)c2c(cnc3cc(Cl)nn23)C(C(=O)Nc2cnc(-n3nccn3)c(Cl)c2)C1O` (racemic) [Example 19, 2-chloro-N-(5-chloro-6-(2H-1,2,3-triazol-2-yl)pyridin-3-yl)-7-hydroxy-8,8-dimethyl-7,8-dihydro-6H-cyclopenta[e]pyrazolo[1,5-a]pyrimidine-6-carboxamide] it is 100 to 1000 nM. As for `CC1(C)CC(C(=O)Nc2cnc(-n3cc(C#N)cn3)c(Cl)c2)c2cnc3cc(Cl)nn3c21` (single isomer, unassigned) [Example 15, 2-chloro-N-(5-chloro-6-(4-cyano-1H-pyrazol-1-yl)pyridin-3-yl)-8,8-dimethyl-7,8-dihydro-6H-cyclopenta[e]pyrazolo[1,5-a]pyrimidine-6-carboxamide], the figure is 100 to 1000 nM; as for `CC1(C)CC(C(=O)Nc2cnc(-n3nccn3)c(Cl)c2)c2cnc3cc(Cl)nn3c21` (single isomer, unassigned) [Example 1, 2-chloro-N-(5-chloro-6-(2H-1,2,3-triazol-2-yl)pyridin-3-yl)-8,8-dimethyl-7,8-dihydro-6H-cyclopenta[e]pyrazolo[1,5-a]pyrimidine-6-carboxamide], 100 to 1000 nM; as for `Cn1ccc(-c2ncc(NC(=O)[C@@H]3CC(C)(C)c4c3cnc3cc(Cl)nn43)cc2Cl)n1` (single isomer, unassigned) [Example 10, 2-chloro-N-(5-chloro-6-(1-methyl-1H-pyrazol-3-yl)pyridin-3-yl)-8,8-dimethyl-7,8-dihydro-6H-cyclopenta[e]pyrazolo[1,5-a]pyrimidine-6-carboxamide], not below 1000 nM. The figure for `CC1(C)C[C@H](C(=O)Nc2cnc(N3CCCC3)c(Cl)c2)c2cnc3cc(Cl)nn3c21` (single isomer, unassigned) [Example 17, 2-chloro-N-(5-chloro-6-(pyrrolidin-1-yl)pyridin-3-yl)-8,8-dimethyl-7,8-dihydro-6H-cyclopenta[e]pyrazolo[1,5-a]pyrimidine-6-carboxamide] is 10 to 100 nM.
